{
  "source": "paper PMC10766536",
  "about": "(The Journal of Antibiotics, 2023)",
  "key": {"Sprague Dawley rats": {"system": "Sprague Dawley rats", "assay": "2-week IV once-a-day toxicity study with 2-week recovery in Sprague Dawley rats", "method": "(§1) A subset from each dose group was maintained for 14 days after the last dose to evaluate delayed toxicity and/or recovery. All animals were observed twice daily for mortality and signs of pain or distress. Detailed clinical observations, body weight measurements and food consumption were conducted weekly; post dose observations (30 min post dose) were conducted daily or as required. Clinical pathology evaluations (hematology, coagulation parameters, and serum chemistry) were performed using samples collected on the day of scheduled sacrifice (main and recovery). At the end of the 14-day dosing period, and at the end of the 14-day recovery period, necropsies were performed on all animals, selected organs were weighed, and tissues were examined macroscopically and microscopically. Toxicokinetic parameters were evaluated on Day 1 and 14."}, "CYP 2D6": {"molecular_target": "CYP 2D6 (Homo sapiens, UniProt P10635)", "sequence (P10635 whole entry)": "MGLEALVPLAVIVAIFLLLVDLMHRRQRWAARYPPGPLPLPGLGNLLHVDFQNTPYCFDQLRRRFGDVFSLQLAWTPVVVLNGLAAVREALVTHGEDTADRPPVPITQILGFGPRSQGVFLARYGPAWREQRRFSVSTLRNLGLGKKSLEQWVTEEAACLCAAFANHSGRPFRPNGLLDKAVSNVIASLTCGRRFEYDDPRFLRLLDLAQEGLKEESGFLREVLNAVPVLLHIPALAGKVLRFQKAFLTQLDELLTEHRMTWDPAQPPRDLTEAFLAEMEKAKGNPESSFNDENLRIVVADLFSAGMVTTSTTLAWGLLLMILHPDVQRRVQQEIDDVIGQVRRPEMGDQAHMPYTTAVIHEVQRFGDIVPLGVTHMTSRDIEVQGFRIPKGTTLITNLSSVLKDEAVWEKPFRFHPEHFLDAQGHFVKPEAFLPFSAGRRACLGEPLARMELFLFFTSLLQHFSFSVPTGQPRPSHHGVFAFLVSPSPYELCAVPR", "assay": "CYP inhibition", "details": "read-out: CYP inhibition IC50; CYP 2D6, substrate Dextromethorphan; ND = Not Detected"}, "[1]": {"system": "Salmonella typhimurium ATCC 14028", "assay": "S. typhimurium broth killing (growth inhibition) assay", "details": "Salmonella typhimurium ATCC 14028, TSB, 24 h"}, "[2]": {"assay": "Toxicokinetics in 2-week IV rat toxicity study", "format": "in vivo", "method": "as §1"}, "[3]": {"details": "combination with vancomycin, end of treatment"}, "[4]": {"details": "end of treatment period, compound alone"}, "[5]": {"details": "males, combination with vancomycin (1 + 110 mg/kg/day), end of treatment, considered vancomycin-related"}},
  "data": [
    {"smiles": "COC1C=COC2(C)Oc3c(C)c(O)c4c(=O)c(c5oc6cc(OCCN(C)C)ccc6nc-5c4c3C2=O)NC(=O)C(C)=CC=CC(C)C(O)C(C)C(O)C(C)C(OC(C)=O)C1C", "note": "(stereo not shown) [Compound 4]", "values": [
      {"measurement": "albumin concentration", "setting": "Sprague Dawley rats; [3]", "result": "minimal decrease"},
      {"measurement": "glucose concentration", "setting": "Sprague Dawley rats; [3]", "result": "minimal increase"},
      {"measurement": "urea nitrogen", "setting": "Sprague Dawley rats; [3]", "result": "minimal increase"},
      {"measurement": "dose with apparent minimal increase in alkaline phosphatase in males", "setting": "Sprague Dawley rats; end of recovery period", "result": "≥ 1", "unit": "mg/kg/day"},
      {"measurement": "dose with increase in glucose", "setting": "Sprague Dawley rats; end of recovery period", "result": "≥ 0.1", "unit": "mg/kg/day"},
      {"measurement": "dose with minimal to mild decreases in globulin in males", "setting": "Sprague Dawley rats; end of recovery period", "result": "≥ 0.1", "unit": "mg/kg/day"},
      {"measurement": "dose with minimal increases in phosphorus", "setting": "Sprague Dawley rats; end of treatment period", "result": "≥ 0.1", "unit": "mg/kg/day"},
      {"measurement": "dose with minimal increases in reticulocyte counts", "setting": "Sprague Dawley rats; end of treatment period", "result": "≥ 0.1", "unit": "mg/kg/day"},
      {"measurement": "dose with minimal decrease in albumin concentration", "setting": "Sprague Dawley rats; [4]", "result": 10, "unit": "mg/kg/day"},
      {"measurement": "dose with minimal increase in glucose concentration", "setting": "Sprague Dawley rats; [4]", "result": 1, "unit": "mg/kg/day"},
      {"measurement": "neutrophils counts", "setting": "Sprague Dawley rats; [5]", "result": "mild decreases"},
      {"measurement": "platelet counts", "setting": "Sprague Dawley rats; [5]", "result": "minimal increase"},
      {"measurement": "red cell mass parameters (red blood cells, hemoglobin, hematocrit)", "setting": "Sprague Dawley rats; [5]", "result": "minimal decreases"},
      {"measurement": "calcium", "setting": "Sprague Dawley rats; males, combination with vancomycin, after 14-day recovery", "result": "minimal decrease"},
      {"measurement": "globulin", "setting": "Sprague Dawley rats; males, combination with vancomycin, end of recovery period", "result": "minimal to mild decreases"},
      {"measurement": "fibrinogen", "setting": "Sprague Dawley rats; males, combination with vancomycin, end of treatment, attributed to vancomycin", "result": "minimal increases"},
      {"measurement": "tolerability", "setting": "Sprague Dawley rats; rat, IV QD 14 days, 0.1-10 mg/kg/day", "result": "well-tolerated"},
      {"measurement": "body weight, body weight gains, food consumption changes", "setting": "Sprague Dawley rats; rat, IV QD 14 days, alone or in combination with vancomycin", "result": "no body weight, body weight gains, or food consumption changes"},
      {"measurement": "no-observed-adverse-effect level (NOAEL)", "setting": "Sprague Dawley rats; rat, IV QD 14 days, highest dose administered", "result": 10, "unit": "mg/kg/day"},
      {"measurement": "IC50", "setting": "CYP 2D6", "result": 11.7, "unit": "µM"},
      {"measurement": "Broth MIC", "setting": "[1]", "result": 4, "unit": "µM"},
      {"measurement": "accumulation following 14 daily doses", "setting": "[2]; rat IV QD", "result": "No apparent accumulation"},
      {"measurement": "sex difference in exposure", "setting": "[2]; rat IV QD 1 mg/kg/day, males vs females", "result": "No sex difference"},
      {"measurement": "dose proportionality of Cmax and AUCtau", "setting": "[2]; rat IV QD 0.1-10 mg/kg/day", "result": "approximately dose-proportional"},
      {"measurement": "AUC or Cmax when coadministered with vancomycin", "setting": "[2]; rat IV, 1 + 110 mg/kg/day, compound 5: except Day 1, slightly greater Cmax and AUC", "result": "not impacted"}
    ]}
  ]
}
